Assay results from patent US11266643B2, “Triaryl compounds for treatment of PD-L1 diseases” (CHEMOCENTRYX, INC., priority 2019, dated 2022).

target: human PD-L1 (Homo sapiens (Human), UniProt Q9NZQ7); experiment: Enzyme-Linked Immunosorbent Assay (ELISA), PD-1/PD-L1 binding; conditions: PD-1/PD-L1 ELISA, human PD-L1 coated plates, Table 1
In short: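 Plates coated with […] human PD-L1 overnight at 4° C, blocked, then 1:5 serial compound dilutions added with human PD-1 […] 0.31 μg/mL for 1 h at 37° C. Bound PD-1 detected with streptavidin-HRP and TMB (20 min, 37° C); absorbance read at 450 nm after H2SO4 stop.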

Chain of human PD-L1 (Q9NZQ7 19-239): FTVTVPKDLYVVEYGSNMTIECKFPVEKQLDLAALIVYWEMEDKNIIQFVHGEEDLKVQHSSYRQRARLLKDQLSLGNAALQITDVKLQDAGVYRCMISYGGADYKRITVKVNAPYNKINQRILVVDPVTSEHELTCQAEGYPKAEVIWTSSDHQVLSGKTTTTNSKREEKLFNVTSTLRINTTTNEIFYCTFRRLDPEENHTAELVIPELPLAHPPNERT

Compound	IC50
COc1cc(-c2cccc(-c3cccc(Nc4nccc5c4OCCN5)c3C)c2C)cc(F)c1CN1CC(C(=O)O)C1 [Example 1.244]	10 to 1000 nM
COc1cc(-c2cccc(-c3cccc(Nc4ccnc5nccnc45)c3C)c2C)cc(F)c1CN1CC(C(=O)O)C1 [Example 1.245]	< 10 nM
COc1cc(-c2cccc(-c3cccc(NC(=O)c4c[nH]c(=O)n(C)c4=O)c3C)c2C)cc(F)c1CN(C)CCC(=O)O [Example 1.247]	10 to 1000 nM
COc1cc(-c2cccc(-c3cccc(Nc4nccn5ccnc45)c3C)c2C)cc(F)c1CN1CC(C(=O)O)C1 [Example 1.249]	10 to 1000 nM
COc1cc(-c2cccc(-c3cccc(Nc4cccc5c4C(=O)N(C)C5)c3C)c2C)cc(F)c1CN1CC(C(=O)O)C1 [Example 1.250]	10 to 1000 nM
COc1cc(-c2cccc(-c3cccc(Nc4cccc5cccnc45)c3C)c2C)cc(F)c1CN1CC(C(=O)O)C1 [Example 1.256]	10 to 1000 nM
COc1cc(-c2cccc(-c3cccc(NC(=O)c4c[nH]c(=O)n(C)c4=O)c3C)c2C)cc(F)c1CNCC(=O)O [Example 1.261]	< 10 nM
COc1cc(-c2cccc(-c3cccc(Nc4nccc5ccccc45)c3C)c2C)cc(F)c1CN1CC(C(=O)O)C1 [Example 1.262]	1000 to 10000 nM
COc1cc(-c2cccc(-c3cccc(Nc4nccc5c4C(=O)N(C)CC5)c3C)c2C)cc(F)c1CN1CC(C(=O)O)C1 [Example 1.265]	< 10 nM
COc1cc(-c2cccc(-c3cccc(NC(=O)c4cncn(C)c4=O)c3C)c2C)cc(F)c1CNCCC(=O)O [Example 1.266]	< 10 nM
COc1cc(-c2cccc(-c3cccc(NC(=O)c4cncn(C)c4=O)c3C)c2C)cc(F)c1CN1CCC2(C1)NC(=O)NC2=O (centres unmarked) [Example 1.269]	< 10 nM
COc1cc(-c2cccc(-c3cccc(NC(=O)c4c[nH]c(=O)n(C)c4=O)c3C)c2C)cc(F)c1CNCCO [Example 1.270]	< 10 nM
COc1cc(-c2cccc(-c3cccc(NC(=O)c4cnc(C)[nH]c4=O)c3C)c2C)cc(F)c1CN1CC(C(=O)O)C1 [Example 1.272]	10 to 1000 nM
COc1cc(-c2cccc(-c3cccc(Nc4nccc5nccnc45)c3C)c2C)cc(F)c1CN1CC(C(=O)O)C1 [Example 1.273]	< 10 nM
COc1cc(-c2cccc(-c3cccc(NC(=O)c4c(C)cc(C)n(C)c4=O)c3C)c2C)cc(F)c1CN1CC(C(=O)O)C1 [Example 1.275]	10 to 1000 nM
COc1cc(-c2cccc(-c3cccc(Nc4nccc5ccn(C)c(=O)c45)c3C)c2C)cc(F)c1CN1CC(C(=O)O)C1 [Example 1.278]	< 10 nM

Compound	IC50
COc1cc(-c2cccc(-c3cccc(NC(=O)c4cccn(C)c4=O)c3C)c2C)cc(F)c1CNCCCC(=O)O [Example 1.279]	< 10 nM
COc1cc(-c2cccc(-c3cccc(NC(=O)c4cccn(C)c4=O)c3C)c2C)cc(F)c1CNCCS(=O)(=O)O [Example 1.280]	< 10 nM
COc1cc(-c2cccc(-c3cccc(NC(=O)c4cccn(C)c4=O)c3C)c2C)cc(F)c1CNCCC(=O)O [Example 1.282]	< 10 nM
COc1cc(-c2cccc(-c3cccc(NC(=O)c4c[nH]c(=O)n(C)c4=O)c3C)c2C)cc(F)c1CN1CC(C(=O)O)C1 [Example 1.283]	< 10 nM
COc1cc(-c2cccc(-c3cccc(Nc4cccc5ccn(C)c(=O)c45)c3C)c2C)cc(F)c1CN1CC(C(=O)O)C1 [Example 1.284]	10 to 1000 nM
COc1cc(-c2cccc(-c3cccc(NC(=O)c4ccc(C(=O)NCCO)cn4)c3C)c2C)cc(F)c1CN1CC(C(=O)O)C1 [Example 1.285]	< 10 nM
COc1cc(-c2cccc(-c3cccc(NC(=O)c4cccn(CC(N)=O)c4=O)c3C)c2C)cc(F)c1CN [Example 1.288]	10 to 1000 nM
COc1cc(-c2cccc(-c3cccc(NC(=O)c4cccn(C)c4=O)c3C)c2C)cc(F)c1CN[C@@](C)(CO)C(=O)O [Example 1.289]	10 to 1000 nM
COc1cc(-c2cccc(-c3cccc(NC(=O)c4cccn(C)c4=O)c3C)c2C)cc(F)c1CNCC(=O)O [Example 1.290]	< 10 nM
COc1cc(-c2cccc(-c3cccc(NC(=O)c4cccn(CC(=O)O)c4=O)c3C)c2C)cc(F)c1CN [Example 1.291]	1000 to 10000 nM
COc1cc(-c2cccc(-c3cccc(NC(=O)c4ccc(OCC(N)=O)cn4)c3C)c2C)cc(F)c1CN [Example 1.296]	< 10 nM
COc1cc(-c2cccc(-c3cccc(NC(=O)c4cccnc4O)c3C)c2C)cc(F)c1CN [Example 1.297]	10 to 1000 nM
COc1cc(-c2cccc(-c3cccc(NC(=O)c4ncc(C(N)=O)cn4)c3C)c2C)cc(F)c1CN [Example 1.299]	< 10 nM
COc1cc(-c2cccc(-c3cccc(NC(=O)c4cccn(C)c4=O)c3C)c2C)cc(F)c1CNCCO [Example 1.300]	< 10 nM
COc1cc(-c2cccc(-c3cccc(NC(=O)c4cccn(C)c4=O)c3C)c2C)cc(F)c1CN1CC(C(=O)O)C1 [Example 1.301]	< 10 nM

The remaining lines, values ahead:

IC50	Compound
10 to 1000 nM	COc1cc(-c2cccc(-c3cccc(Nc4cccc5cncnc45)c3C)c2C)cc(F)c1CN1CC(C(=O)O)C1 [Example 1.246]
10 to 1000 nM	COc1cc(-c2cccc(-c3cccc(Nc4cccc5nccnc45)c3C)c2C)cc(F)c1CN1CC(C(=O)O)C1 [Example 1.248]
10 to 1000 nM	COc1cc(-c2cccc(-c3cccc(NC(=O)c4c[nH]c(=O)n(C)c4=O)c3C)c2C)cc(F)c1CN(C)CC(N)=O [Example 1.251]
10 to 1000 nM	COc1cc(-c2cccc(-c3cccc(NC(=O)c4c[nH]c(=O)n(C)c4=O)c3C)c2C)cc(F)c1CNCC(N)=O [Example 1.252]
< 10 nM	COc1cc(-c2cccc(-c3cccc(Nc4cncc5nccnc45)c3C)c2C)cc(F)c1CN1CC(C(=O)O)C1 [Example 1.253]
< 10 nM	COc1cc(-c2cccc(-c3cccc(NC(=O)c4cncn(C)c4=O)c3C)c2C)cc(F)c1CN[C@H]1CCC(=O)NC1 [Example 1.255]
10 to 1000 nM	COc1cc(-c2cccc(-c3cccc(NC(=O)c4c[nH]c(=O)n(C)c4=O)c3C)c2C)cc(F)c1CN1CCC2(C1)NC(=O)NC2=O (centres unmarked) [Example 1.257]
< 10 nM	COc1cc(-c2cccc(-c3cccc(NC(=O)c4cncn(C)c4=O)c3C)c2C)cc(F)c1CNCCS(=O)(=O)O [Example 1.260]
10 to 1000 nM	COc1cc(-c2cccc(-c3cccc(Nc4ccnc5cccnc45)c3C)c2C)cc(F)c1CN1CC(C(=O)O)C1 [Example 1.263]
10 to 1000 nM	COc1cc(-c2cccc(-c3cccc(Nc4cc5c(cn4)C(=O)NCC5)c3C)c2C)cc(F)c1CN1CC(C(=O)O)C1 [Example 1.264]
< 10 nM	COc1cc(-c2cccc(-c3cccc(NC(=O)c4cncn(C)c4=O)c3C)c2C)cc(F)c1CNCC(=O)O [Example 1.267]
< 10 nM	COc1cc(-c2cccc(-c3cccc(NC(=O)c4cncn(C)c4=O)c3C)c2C)cc(F)c1CN(C)CCC(=O)O [Example 1.268]
< 10 nM	COc1cc(-c2cccc(-c3cccc(NC(=O)c4c[nH]c(=O)n(C)c4=O)c3C)c2C)cc(F)c1CN1CC(O)C1 [Example 1.271]
< 10 nM	COc1cc(-c2cccc(-c3cccc(NC(=O)c4cccn(CCO)c4=O)c3C)c2C)cc(F)c1CN1CC(C(=O)O)C1 [Example 1.277]
< 10 nM	COc1cc(-c2cccc(-c3cccc(NC(=O)c4cccn(C)c4=O)c3C)c2C)cc(F)c1CNCC(C)(C)O [Example 1.281]
< 10 nM	COc1cc(-c2cccc(-c3cccc(Nc4cccc5ncn(C)c(=O)c45)c3C)c2C)cc(F)c1CN1CC(C(=O)O)C1 [Example 1.287]
